This is an account of results in patent publication US20070128217A1 (priority 2003, published 2007).

In experiment [1] the test system is rabbit serum obtained by immunizing a rabbit with the SARS-CoV strain Frankfurt 1. The format is binding. Set-up: Binding of a rabbit serum to linear peptides / Binding of a rabbit serum to looped peptides / Rabbit serum linear peptides / Rabbit serum looped peptides / Binding of a rabbit serum to linear peptides of protein N of SARS-CoV Urbani (Rabbit serum linear peptides) / Binding of a rabbit serum to looped/cyclic peptides of protein N of SARS-CoV Urbani (Rabbit serum looped peptides): unit not given here.

The subject of experiment [2] is antibodies in sera from SARS patients (sera 1a, 1b, 2, 6, 37, 62, London, SARS-yellow, SARS-green). The format is binding, human. Set-up: Binding of serum 6 to linear peptides of protein X1 of SARS-CoV Urbani / Binding of serum 37 to linear peptides of protein X1 of SARS-CoV Urbani / Binding of serum 6 to looped/cyclic peptide (PEPSCAN-ELISA) / Binding of serum 37 to looped/cyclic peptide (PEPSCAN-ELISA) / Binding of serum 37 to looped/cyclic peptides of protein X1 of SARS-CoV Urbani / Binding of serum 6 to linear peptides of protein X2 / Binding of serum 37 to linear peptides of protein X2 / Binding of serum 37 to looped/cyclic peptides of protein X2 of SARS-CoV Urbani / Binding of serum 6 to linear peptides of protein M of SARS-CoV Urbani / Binding of serum 37 to linear peptides of protein M of SARS-CoV Urbani / Binding of serum 6 to looped/cyclic peptides of protein M of SARS-CoV Urbani / Binding of serum 37 to looped/cyclic peptides of protein M of SARS-CoV Urbani / Binding of serum 6 to linear peptides of protein X3 of SARS-CoV Urbani / Binding of serum 37 to linear peptides of protein X3 of SARS-CoV Urbani / Binding of serum 37 to looped/cyclic peptides of protein X3 of SARS-CoV Urbani / Binding of serum 6 to linear peptides of protein X4 of SARS-CoV Urbani / Binding of serum 37 to linear peptides of protein X4 of SARS-CoV Urbani / Binding of serum 37 to looped/cyclic peptides of protein X4 of SARS-CoV Urbani / Binding of serum 6 to linear peptides of protein X5 of SARS-CoV Urbani / Binding of serum 37 to linear peptides of protein X5 of SARS-CoV Urbani / Binding of serum 37 to looped/cyclic peptides of protein X5 of SARS-CoV Urbani / Binding of serum 6 to linear peptides of protein N of SARS-CoV Urbani / Binding of serum 37 to linear peptides of protein N of SARS-CoV Urbani / Binding of serum 6 to linear peptide (PEPSCAN-ELISA) / Binding of serum 1a to looped/cyclic peptides of protein N of SARS-CoV Urbani / Binding of serum 1b to looped/cyclic peptides of protein N of SARS-CoV Urbani / Binding of serum 2 to looped/cyclic peptides of protein N of SARS-CoV Urbani / Binding of serum 6 to looped/cyclic peptides of protein N of SARS-CoV Urbani / Binding of serum 37 to looped/cyclic peptides of protein N of SARS-CoV Urbani / Binding of serum 62 to looped/cyclic peptides of protein N of SARS-CoV Urbani / Binding of serum London to looped/cyclic peptides of protein N of SARS-CoV Urbani / Binding of serum SARS-green to looped/cyclic peptides of protein N of SARS-CoV Urbani: unit not given here.

The test system of experiment [3] is control sera (pooled serum of ten healthy LUMC hospital workers; commercial negative donor pooled serum from the Dutch bloodbank). The format is binding, human. The arrangement: Binding of Control serum LUMC to linear peptides / Binding of Control serum Blood-bank to linear peptides / Binding of Control serum LUMC to looped peptides / Binding of Control Serum Blood-Bank to Looped peptides / Binding of Control serum LUMC to linear peptides of the protein M of SARS-CoV Urbani / Binding of Control serum Blood-bank to linear peptides of the protein M of SARS-CoV Urbani / Binding of Control serum LUMC to looped peptides of the protein M of SARS-CoV Urbani / Binding of Control Serum Blood-Bank to Looped peptides of the protein M of SARS-CoV Urbani: unit not given here.

For WLVIGVAFLAVFQSA, in experiment [1], the “Binding of a rabbit serum to linear peptides” value is recorded as 0.5 and the “Binding of a rabbit serum to looped peptides” value is on record as 0.5. Moreover, in experiment [2], the “Binding of serum 1a to linear peptides of protein X1 of SARS-CoV Urbani” value was 0.6, the “Binding of serum 1a to looped/cyclic peptide (PEPSCAN-ELISA)” value amounted to 0.5, the “Binding of serum 1b to linear peptides of protein X1 of SARS-CoV Urbani” value is 0.5 and the “Binding of serum 1b to looped/cyclic peptide (PEPSCAN-ELISA)” value amounted to 0.3. Also, in experiment [2], the “Binding of serum 2 to linear peptides of protein X1 of SARS-CoV Urbani” value was found to be 0.5, the “Binding of serum 2 to looped/cyclic peptide (PEPSCAN-ELISA)” value is on record as 0.4, the “Binding of serum 6 to linear peptides of protein X1 of SARS-CoV Urbani” value was 0.4 and the “Binding of serum 6 to looped/cyclic peptide (PEPSCAN-ELISA)” value is 0.2. Besides, in experiment [2], the “Binding of serum 37 to linear peptides of protein X1 of SARS-CoV Urbani” value stood at 0.7, the “Binding of serum 37 to looped/cyclic peptide (PEPSCAN-ELISA)” value is on record as 0.5, the “Binding of serum 62 to linear peptides of protein X1 of SARS-CoV Urbani” value stood at 0.6 and the “Binding of serum 62 to looped/cyclic peptide (PEPSCAN-ELISA)” value was determined as 0.5. Further, in experiment [2], the “Binding of serum London to linear peptides of protein X1 of SARS-CoV Urbani” value worked out at 0.3, the “Binding of serum London to looped/cyclic peptide (PEPSCAN-ELISA)” value is given as 0.2, the “Binding of serum SARS-green to linear peptides of protein X1 of SARS-CoV Urbani” value is given as 0.3 and the “Binding of serum SARS-green to looped/cyclic peptide (PEPSCAN-ELISA)” value was 0.2. Also, in experiment [2], the “Binding of serum SARS-yellow to linear peptides of protein X1 of SARS-CoV Urbani” value turned out to be 0.4 and the “Binding of serum SARS-yellow to looped/cyclic peptide (PEPSCAN-ELISA)” value was 0.5. Further, in experiment [3], the “Binding of Control Serum Blood-Bank to Looped peptides” value worked out at 0.5, the “Binding of Control serum Blood-bank to linear peptides” value worked out at 0.6, the “Binding of Control serum LUMC to linear peptides” value is on record as 0.6 and the “Binding of Control serum LUMC to looped peptides” value is reported as 0.5.

As for WNLVIGFLFLAWIML, in experiment [1], the “Rabbit serum linear peptides” value worked out at 0.2 and the “Rabbit serum looped peptides” value was 0.3. Further, in experiment [2], the “Binding of serum 1a to linear peptides of protein M of SARS-CoV Urbani” value stood at 0.7, the “Binding of serum 1a to looped/cyclic peptides of protein M of SARS-CoV Urbani” value worked out at 0.6, the “Binding of serum 1b to linear peptides of protein M of SARS-CoV Urbani” value is 0.6 and the “Binding of serum 1b to looped/cyclic peptides of protein M of SARS-CoV Urbani” value was determined as 0.5. Besides, in experiment [2], the “Binding of serum 2 to linear peptides of protein M of SARS-CoV Urbani” value is reported as 0.4, the “Binding of serum 2 to looped/cyclic peptides of protein M of SARS-CoV Urbani” value is on record as 0.6, the “Binding of serum 6 to linear peptides of protein M of SARS-CoV Urbani” value is on record as 0.3 and the “Binding of serum 6 to looped/cyclic peptides of protein M of SARS-CoV Urbani” value worked out at 0.4. Moreover, in experiment [2], the “Binding of serum 37 to linear peptides of protein M of SARS-CoV Urbani” value is recorded as 0.4, the “Binding of serum 37 to looped/cyclic peptides of protein M of SARS-CoV Urbani” value was 0.6, the “Binding of serum 62 to linear peptides of protein M of SARS-CoV Urbani” value stood at 0.4 and the “Binding of serum 62 to looped/cyclic peptides of protein M of SARS-CoV Urbani” value is 0.6. In experiment [2], the “Binding of serum London to linear peptides of protein M of SARS-CoV Urbani” value is given as 0.3, the “Binding of serum London to looped/cyclic peptides of protein M of SARS-CoV Urbani” value is recorded as 0.2, the “Binding of serum SARS-green to linear peptides of protein M of SARS-CoV Urbani” value is listed as 0.4 and the “Binding of serum SARS-green to looped/cyclic peptides of protein M of SARS-CoV Urbani” value worked out at 0.3. Moreover, in experiment [2], the “Binding of serum SARS-yellow to linear peptides of protein M of SARS-CoV Urbani” value is recorded as 0.2 and the “Binding of serum SARS-yellow to looped/cyclic peptides of protein M of SARS-CoV Urbani” value is recorded as 0.7. In experiment [3], the “Binding of Control Serum Blood-Bank to Looped peptides of the protein M of SARS-CoV Urbani” value was found to be 0.5, the “Binding of Control serum Blood-bank to linear peptides of the protein M of SARS-CoV Urbani” value is listed as 0.6, the “Binding of Control serum LUMC to linear peptides of the protein M of SARS-CoV Urbani” value is recorded as 0.6 and the “Binding of Control serum LUMC to looped peptides of the protein M of SARS-CoV Urbani” value was 0.7.

As to WSFNPETNILLNVPL, in experiment [1], the “Rabbit serum linear peptides” value turned out to be 0.3 and the “Rabbit serum looped peptides” value is given as 0.3. In addition, in experiment [2], the “Binding of serum 1a to linear peptides of protein M of SARS-CoV Urbani” value worked out at 1.5, the “Binding of serum 1a to looped/cyclic peptides of protein M of SARS-CoV Urbani” value is given as 0.8, the “Binding of serum 1b to linear peptides of protein M of SARS-CoV Urbani” value is 1.7 and the “Binding of serum 1b to looped/cyclic peptides of protein M of SARS-CoV Urbani” value is recorded as 0.5. Also, in experiment [2], the “Binding of serum 2 to linear peptides of protein M of SARS-CoV Urbani” value is reported as 1.3, the “Binding of serum 2 to looped/cyclic peptides of protein M of SARS-CoV Urbani” value is given as 0.6, the “Binding of serum 6 to linear peptides of protein M of SARS-CoV Urbani” value is 1.0 and the “Binding of serum 6 to looped/cyclic peptides of protein M of SARS-CoV Urbani” value came to 0.5. Further, in experiment [2], the “Binding of serum 37 to linear peptides of protein M of SARS-CoV Urbani” value is recorded as 0.9, the “Binding of serum 37 to looped/cyclic peptides of protein M of SARS-CoV Urbani” value is 0.7, the “Binding of serum 62 to linear peptides of protein M of SARS-CoV Urbani” value is recorded as 1.3 and the “Binding of serum 62 to looped/cyclic peptides of protein M of SARS-CoV Urbani” value was 0.7. Besides, in experiment [2], the “Binding of serum London to linear peptides of protein M of SARS-CoV Urbani” value was found to be 1.0, the “Binding of serum London to looped/cyclic peptides of protein M of SARS-CoV Urbani” value was determined as 0.2, the “Binding of serum SARS-green to linear peptides of protein M of SARS-CoV Urbani” value was 1.5 and the “Binding of serum SARS-green to looped/cyclic peptides of protein M of SARS-CoV Urbani” value came to 0.2. Further, in experiment [2], the “Binding of serum SARS-yellow to linear peptides of protein M of SARS-CoV Urbani” value is 1.1 and the “Binding of serum SARS-yellow to looped/cyclic peptides of protein M of SARS-CoV Urbani” value is on record as 0.8. Also, in experiment [3], the “Binding of Control Serum Blood-Bank to Looped peptides of the protein M of SARS-CoV Urbani” value is 0.6, the “Binding of Control serum Blood-bank to linear peptides of the protein M of SARS-CoV Urbani” value came out at 1.3, the “Binding of Control serum LUMC to linear peptides of the protein M of SARS-CoV Urbani” value was determined as 1.5 and the “Binding of Control serum LUMC to looped peptides of the protein M of SARS-CoV Urbani” value was 0.8.

As to YALIYFLQCINACRI, in experiment [1], the “Binding of a rabbit serum to linear peptides” value is reported as 0.1 and the “Binding of a rabbit serum to looped peptides” value turned out to be 0.0. Also, in experiment [2], the “Binding of serum 1a to linear peptides of protein X1 of SARS-CoV Urbani” value is 0.7, the “Binding of serum 1a to looped/cyclic peptide (PEPSCAN-ELISA)” value is 0.2, the “Binding of serum 1b to linear peptides of protein X1 of SARS-CoV Urbani” value came to 0.5 and the “Binding of serum 1b to looped/cyclic peptide (PEPSCAN-ELISA)” value is recorded as 0.1. In experiment [2], the “Binding of serum 2 to linear peptides of protein X1 of SARS-CoV Urbani” value came to 0.5, the “Binding of serum 2 to looped/cyclic peptide (PEPSCAN-ELISA)” value is 0.1, the “Binding of serum 6 to linear peptides of protein X1 of SARS-CoV Urbani” value came to 0.4 and the “Binding of serum 6 to looped/cyclic peptide (PEPSCAN-ELISA)” value was determined as 0.0. Also, in experiment [2], the “Binding of serum 37 to linear peptides of protein X1 of SARS-CoV Urbani” value turned out to be 0.6, the “Binding of serum 37 to looped/cyclic peptide (PEPSCAN-ELISA)” value was determined as 0.1, the “Binding of serum 62 to linear peptides of protein X1 of SARS-CoV Urbani” value came to 0.6 and the “Binding of serum 62 to looped/cyclic peptide (PEPSCAN-ELISA)” value was determined as 0.2. In experiment [2], the “Binding of serum London to linear peptides of protein X1 of SARS-CoV Urbani” value came out at 0.3, the “Binding of serum London to looped/cyclic peptide (PEPSCAN-ELISA)” value is recorded as 0.1, the “Binding of serum SARS-green to linear peptides of protein X1 of SARS-CoV Urbani” value worked out at 0.2 and the “Binding of serum SARS-green to looped/cyclic peptide (PEPSCAN-ELISA)” value is listed as 0.2. In experiment [2], the “Binding of serum SARS-yellow to linear peptides of protein X1 of SARS-CoV Urbani” value is on record as 0.4 and the “Binding of serum SARS-yellow to looped/cyclic peptide (PEPSCAN-ELISA)” value was 0.0. For the same sequence, in experiment [3], the “Binding of Control Serum Blood-Bank to Looped peptides” value is listed as 0.3, the “Binding of Control serum Blood-bank to linear peptides” value stood at 0.6, the “Binding of Control serum LUMC to linear peptides” value turned out to be 0.6 and the “Binding of Control serum LUMC to looped peptides” value was determined as 0.2.
